Patent US20240189380A1, “COMPOSITIONS FOR INHIBITING EHP INFECTION IN SHRIMP AND RELATED METHODS” (priority 2022, published 2024)

Tested on: EHP spores
Test: In vitro inactivation of polar tube extrusion of EHP spores
Type: cell-based, Enterocytozoon hepatopenaei
Conditions: for polar tube extrusion of EHP spores compared to DMSO control: p>0.05; for polar tube extrusion rate: Batch 1 spores (high saline culture), 2 hours at 37° C.; for % of extrusion post-incubation: Batch 2 spores (low saline culture)
Protocol: The mechanism of EHP infection involves extrusion of polar tube (adhesive mechanism). In an in vitro study, inactivation of polar tube extrusion of EHP spores were tested with selected active ingredients namely thymoquinone, cinnamic aldehyde, eugenol, and carvacrol. The stock solution of bioactive molecules was prepared in dimethyl sulfoxide (DMSO) and further working solution prepared with 1× sterile phosphate buffer saline (1×PBS).
EHP spores were isolated and purified from HP of infected shrimps from high saline shrimp culture system (Batch 1) and low saline shrimp culture system (Batch 2). Purified spores were then incubated with the test molecules at a desired concentration for 2 hours at 37° C. Washed spores were then induced for polar tube extrusion with alkaline agent. The extrusion of the spore polar tubes was determined under a light microscope at 100× magnification by counting the number of extruded spores from a total of 100 spores and converting the number into % of extrusion.
Statistical analysis. The One-way analysis of variance (ANOVA) and t-Test were performed to determine the significant differences at a 95% confidence interval of % polar tube extrusion between spores treated with bioactive molecules and the corresponding DMSO control. The analyses were carried out using STATGRAPHICS centurion.

Cc1ccc(C(C)C)cc1O [Carvacrol]
polar tube extrusion of EHP spores compared to DMSO control (100 ppm): slight reduction

CC1=CC(=O)C(C(C)C)=CC1=O [Thymoquinone]
polar tube extrusion rate (10 ppm): 43.92%
polar tube extrusion rate (100 ppm): 6.34%
% of extrusion post-incubation (10 ppm, 2% DMSO control 86.47%): 40.31%
% of extrusion post-incubation (100 ppm, 20% DMSO control 88.32%): 0.31%

C=CCc1ccc(O)c(OC)c1 [Eugenol]
polar tube extrusion of EHP spores compared to DMSO control (100 ppm): slight reduction

O=C/C=C/c1ccccc1 [Cinnamic aldehyde]
polar tube extrusion of EHP spores compared to DMSO control (100 ppm): slight reduction
